Assay results: PubChem BioAssay (NCI)
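Assay format: 96-well plates, 48-hour exposure. TGI: total growth inhibition.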

Assays:
Test in all cases: DTP human tumour cell line panel, 48 h
CAKI-1 renal = tested on: CAKI-1 renal
HCC-2998 colon = tested on: HCC-2998 colon
K-562 leukemia = tested on: K-562 leukemia
MDA-MB-231 breast = tested on: MDA-MB-231 breast
MOLT-4 leukemia = tested on: MOLT-4 leukemia
OVCAR-3 ovarian = tested on: OVCAR-3 ovarian
OVCAR-4 ovarian = tested on: OVCAR-4 ovarian
OVCAR-5 ovarian = tested on: OVCAR-5 ovarian
PC-3 prostate = tested on: PC-3 prostate
SNB-19 CNS = tested on: SNB-19 CNS
SNB-75 CNS = tested on: SNB-75 CNS
SR leukemia = tested on: SR leukemia
TK-10 renal = tested on: TK-10 renal
U251 CNS = tested on: U251 CNS

Row | SMILES | TGI (CAKI-1 renal) | TGI (HCC-2998 colon) | TGI (K-562 leukemia) | TGI (MDA-MB-231 breast) | TGI (MOLT-4 leukemia) | TGI (OVCAR-3 ovarian) | TGI (OVCAR-4 ovarian) | TGI (OVCAR-5 ovarian) | TGI (PC-3 prostate) | TGI (SNB-19 CNS) | TGI (SNB-75 CNS) | TGI (SR leukemia) | TGI (TK-10 renal) | TGI (U251 CNS)
1 | CCCNc1c(Cl)cc(Cl)c2[nH]c3ccccc3c(=O)c12 | > 100 µM | > 100 µM | > 100 µM | > 100 µM | > 100 µM | > 100 µM | > 100 µM | > 100 µM | > 100 µM | 65.7 µM | > 100 µM | > 100 µM | > 100 µM | > 100 µM
2 | O=Cc1cc(O)ccc1Br | 48.1 µM | 30.1 µM | 19.2 µM | > 100 µM | 43.8 µM | > 91.8 µM | > 65.7 µM | > 100 µM | > 78.4 µM | > 100 µM | > 100 µM | 17.3 µM | 99 µM | 41.3 µM
3 | Nc1nc(Cl)cc(NCC2(CO)CC(O)C2)n1 (configuration not stated) | > 100 µM | > 100 µM | > 100 µM | > 100 µM | > 100 µM | > 100 µM | > 100 µM | > 100 µM | > 100 µM | > 100 µM | > 100 µM | > 100 µM | > 100 µM | > 100 µM
4 | COc1cc([C@@H]2c3cc4c(cc3[C@@H](N=Cc3ccc(C(=O)O[C@H]5C[C@H]6OC[C@@]6(OC(C)=O)[C@H]6[C@H](OC(=O)c7ccccc7)[C@]7(O)C[C@H](OC(=O)[C@H](OC(=O)c8ccc(C=N[C@@H]9c%10cc%11c(cc%10[C@@H](c%10cc(OC)c(O)c(OC)c%10)[C@H]%10C(=O)OC[C@@H]%109)OCO%11)cc8)[C@@H](NC(=O)c8ccccc8)c8ccccc8)C(C)=C([C@@H](OC(C)=O)C(=O)[C@]56C)C7(C)C)cc3)C3COC(=O)C32)OCO4)cc(C)c1O (some centres not stated) | > 50 µM | > 50 µM | > 50 µM | > 43.4 µM | > 50 µM | > 31.9 µM | > 50 µM | > 23.6 µM | > 27.5 µM | > 50 µM | > 50 µM | > 50 µM | > 50 µM | > 31.6 µM
5 | COc1ccc(N=C/C=C/C(=C/COC(C)=O)OC(C)=O)cc1 | 63.8 µM | > 100 µM | 19.2 µM | 65.3 µM | > 100 µM | > 100 µM | 93.8 µM | > 100 µM | > 100 µM | > 100 µM | > 100 µM | > 100 µM | > 100 µM | 72.3 µM
6 | COc1cc(/C=C2\N=C(c3ccccc3)N(/N=C/c3cc4cc(C)ccc4nc3Cl)C2=O)ccc1O | > 100 µM | > 100 µM | > 100 µM | > 100 µM | 47.8 µM | > 100 µM | > 100 µM | > 100 µM | 50.1 µM | > 100 µM | 83.9 µM | 47.1 µM | > 100 µM | > 100 µM
7 | CC1(c2nc3ccccc3[nH]2)CCC(CO)C(C)(C)O1 (configuration not stated) | > 100 µM | > 100 µM | > 100 µM | > 100 µM | > 100 µM | > 100 µM | > 100 µM | > 100 µM | > 100 µM | > 100 µM | > 100 µM | 33.7 µM | > 100 µM | > 100 µM
8 | O=[N+]([O-])c1ccc2nc(/C=C(\O)c3ccccc3)c(/C=C(\O)c3ccc(Cl)cc3)nc2c1 | > 100 µM | > 100 µM | > 100 µM | > 100 µM | > 100 µM | > 100 µM | > 100 µM | > 100 µM | > 100 µM | > 100 µM | 64.9 µM | > 100 µM | > 100 µM | > 100 µM
9 | COC(=O)C1(Cc2ccccc2C)Cc2ccc(C)cc2C1=O (configuration not stated) | > 100 µM | > 100 µM | > 100 µM | > 100 µM | 74.7 µM | > 100 µM | > 100 µM | > 100 µM | 92.6 µM | > 100 µM | > 100 µM | 33.1 µM | 85.9 µM | > 100 µM
10 | N#Cc1c(-c2ccccc2)cc(Nc2ccc(F)cc2)n2c1nc1ccccc12 | > 100 µM | > 100 µM | > 100 µM | 65.2 µM | > 100 µM | 19.3 µM | > 100 µM | > 29.2 µM | 4.97 µM | > 100 µM | 6.76 µM | > 100 µM | > 54 µM | 8.11 µM
11 | CC(=O)Nc1ccccc1S(=O)(=O)c1c(-c2c(C)c(Cl)c(C)c(Cl)c2C)noc1C | 79.3 µM | > 100 µM | > 100 µM | 88 µM | > 100 µM | > 100 µM | 35.6 µM | > 100 µM | > 100 µM | 64.5 µM | 34.6 µM | 43.2 µM | 73.7 µM | 95.5 µM
12 | c1cc(-c2ccc(Oc3ccc(-c4ccncc4)cc3)cc2)ccn1 | > 27.1 µM | > 54.5 µM | > 100 µM | > 100 µM | 41.5 µM | > 61.8 µM | > 100 µM | > 100 µM | > 100 µM | > 100 µM | > 73.7 µM | 9.97 µM | > 66.1 µM | > 48.8 µM
13 | COC(=O)c1c(OC(C)=O)ccc2c1c1c(n2Cc2ccccc2)C(=O)c2ccccc2C1=O | 51.2 µM | 30.3 µM | 87.3 µM | 36.8 µM | > 100 µM | 36.3 µM | 74.2 µM | 41.3 µM | 59.8 µM | 97.1 µM | 52.4 µM | 64.5 µM | 95.4 µM | 42.4 µM
14 | C[N+](C)(C)C(Cc1c[nH]c(=S)[nH]1)C(=O)O (configuration not stated) | > 100 µM | > 100 µM | > 100 µM | > 100 µM | > 100 µM | > 100 µM | > 100 µM | > 100 µM | > 100 µM | > 100 µM | > 100 µM | > 100 µM | > 100 µM | > 100 µM
15 | C=C1C(=O)OC2C3C(=C)[C@@H](OC(C)=O)CC3C(C)=CC(OC(=O)C(C)(O)C(C)OC(C)=O)[C@@H]12 (some centres not stated) | 12.4 µM | 29.7 µM | 14.8 µM | 34.1 µM | > 100 µM | 21.8 µM | 23.3 µM | 24.9 µM | 30.7 µM | > 100 µM | 28.4 µM | 68.9 µM | 18.4 µM | 30.5 µM
16 | COC(=O)C1CCCCCCCCCCC12SCCCS2 (configuration not stated) | 96.3 µM | 61 µM | 56.7 µM | 45.2 µM | 45 µM | 41 µM | 38.7 µM | 34.7 µM | 50 µM | 83.2 µM | 81.2 µM | 34.9 µM | 41.6 µM | 32.1 µM
17 | COc1ccc2c(c1)CC[C@@H]1C2CC[C@]2(C)C(=O)N(C)C(=O)CC12 (some centres not stated) | > 100 µM | > 100 µM | > 100 µM | > 100 µM | > 100 µM | > 100 µM | > 100 µM | > 100 µM | > 100 µM | > 100 µM | > 100 µM | > 100 µM | > 100 µM | > 100 µM
18 | CC(=O)NC1C(OCc2ccccc2)OC(CO)C(O)C1OCC(=O)NC(C)C(=O)NC(CCC(=O)Nc1ccc2c(c1)CN1C(=O)c3ccccc3C1=N2)C(N)=O (configuration not stated) | > 100 µM | > 100 µM | > 100 µM | > 100 µM | > 100 µM | > 100 µM | > 100 µM | > 100 µM | > 100 µM | > 100 µM | > 100 µM | > 100 µM | > 100 µM | > 100 µM
